Tests used:
Assay type in all cases: in vivo
C57BL6 mice [1] = assay: Liver histology (HE, Oil Red O, Masson, TUNEL staining), mouse NASH model; details: for liver Masson staining (fibrous cords) / liver Oil Red O staining (fat accumulation) / liver Masson staining (fibrous depositions): vs model group
Procedure: (§1) In this example, a mouse nonalcoholic steatohepatitis (NASH) model was used to evaluate the effect of hepalatide (L47) on pathological changes and metabolism level of NASH, and to determine whether L47 can improve the pathological changes of NASH, so as to provide reference for pharmacodynamic evaluation of L47 before clinical treatment.
At week 8 and week 16, hematoxylin eosin (HE) staining, trichrome staining (Masson staining), Oil Red 0 staining and apoptosis (TUNEL) staining were performed on the liver tissue sections of mice.

C57BL6 mice [2] = assay: Mouse NASH model, overall conclusions at week 8 and week 16
From the text: as §1
4.1.1 Normal control group (Control): common block feed+common water, 14 mice in total, wherein 6 mice were sacrificed at week 8, and 8 mice were sacrificed at week 16.
4.1.2 Model group (HFC-F/G): high fat feed+high sugar water, 9 mice in total, wherein 3 mice were sacrificed at week 8, and 6 mice were sacrificed at week 16.
4.1.3 Low dose group 1 (HFC-F/G+HL1): high fat feed+high sugar water+L47 20 mg/kg (10 mg/kg*2/d, i.e. once in the morning and once in the afternoon), 10 mice in total, wherein 3 mice were sacrificed at week 8, and 7 mice were sacrificed at week 16.
4.1.4 High dose group 1 (HFC-F/G+HH1): high fat feed+high sugar water+L47 60 mg/kg (30 mg/kg*2/d, i.e. once in the morning and once in the afternoon), 10 mice in total, wherein 3 mice were sacrificed at week 8, and 7 mice were sacrificed at week 16.
4.1.5 Low dose group 2 (HFC-F/G+HL2): high fat feed+high sugar water+L47 20 mg/kg (10 mg/kg*2/d, i.e. once in the morning and once in the afternoon, with pharmacologic intervention started 8 weeks after initiation of the experiment), 5 mice in total, which are sacrificed after 16 weeks.
4.1.6 High dose group 2 (HFC-F/G+HH2): high fat feed+high sugar water+L47 60 mg/kg (30 mg/kg*2/d, i.e. once in the morning and once in the afternoon, with pharmacologic intervention started 8 weeks after initiation of the experiment), 5 mice in total, which are sacrificed after 16 weeks.
The concentration of L47 in low dose group was 5 mg/ml; the concentration of L47 in high dose group was 10 mg/ml.
Route of administration: subcutaneous injection.

C57BL6 mice [3] = assay: Body weight and general observation of abdominal fat, mouse NASH model
From the text: as §1
Each experimental group was provided with sufficient feed and water daily with free diet, and water was changed twice a week for sugar water-added group, and the remaining amount of feed was weighed and added to 150 g each week for each group in addition to the normal control group, and body weight of mice was weighed each week for each group.
At week 8 and week 16, liver was separated by dissection after anesthesia and blood collection, and pathological changes of liver tissues and accumulation of abdominal fat were grossly observed by the naked eye.

[4] = week 8, treatment groups (HL1, HH1)
[5] = week 16, HH1 (L47 30 mg/kg*2/d s.c. from start)
[6] = week 16, HH2 (L47 30 mg/kg*2/d s.c., started after 8 weeks)
[7] = week 16, HL1 (L47 10 mg/kg*2/d s.c. from start)
[8] = week 16, HL2 (L47 10 mg/kg*2/d s.c., started after 8 weeks)
[9] = overall conclusion, week 8 and week 16
[10] = overall conclusion, effect better as dose and administration duration increased
[11] = overall conclusion, in a short period of time, dose-dependent

hepalatide [L47]
liver HE staining (fat vacuoles, inflammatory cells) (C57BL6 mice [1]; week 8, low and high dose groups (HL1, HH1)): only less and smaller fat vacuoles were formed, with less inflammatory cells
liver Oil Red O staining (fat droplet vacuoles) (C57BL6 mice [1]; [4]): only smaller and less vacuoles
liver TUNEL staining (apoptosis) (C57BL6 mice [1]; [4]): effectively improved
TUNEL semi-quantitative counting (number of apoptotic bodies) (C57BL6 mice [1]; week 8, treatment groups (HL1, HH1) vs model group, p<0.001, p<0.001): significantly decreased
liver HE staining (steatosis, inflammatory cell infiltration) (C57BL6 mice [1]; [5]): severe steatosis
liver TUNEL staining (apoptosis) (C57BL6 mice [1]; [5]): no improvement
liver TUNEL staining (apoptosis) (C57BL6 mice [1]; [6]): effectively improved
TUNEL semi-quantitative counting (number of apoptotic bodies) (C57BL6 mice [1]; week 16, HH2 (L47 30 mg/kg*2/d s.c., started after 8 weeks), p<0.01): significantly decreased
liver TUNEL staining (apoptosis) (C57BL6 mice [1]; [7]): no improvement
liver TUNEL staining (apoptosis) (C57BL6 mice [1]; [8]): effectively improved
TUNEL semi-quantitative counting (number of apoptotic bodies) (C57BL6 mice [1]; week 16, HL2 (L47 10 mg/kg*2/d s.c., started after 8 weeks), p<0.01): significantly decreased
liver HE staining (steatosis, inflammatory response) (C57BL6 mice [1]; week 16, other groups (HL1, HL2, HH2)): slight steatosis and inflammatory response
liver Masson staining (fibrous cords) (C57BL6 mice [1]; [5]): no significant difference
liver Oil Red O staining (fat accumulation) (C57BL6 mice [1]; [5]): only slightly reduced
liver Masson staining (fibrous depositions) (C57BL6 mice [1]; [6]): decreased
liver Oil Red O staining (fat accumulation) (C57BL6 mice [1]; [6]): significantly reduced
liver Masson staining (fibrous cords) (C57BL6 mice [1]; [7]): no significant difference
liver Oil Red O staining (fat accumulation) (C57BL6 mice [1]; [7]): only slightly reduced
liver Masson staining (fibrous depositions) (C57BL6 mice [1]; [8]): decreased
liver Oil Red O staining (fat accumulation) (C57BL6 mice [1]; [8]): significantly reduced
levels of ALB, HDL and LDL (C57BL6 mice [2]; [9]): reduce
levels of VLDL and ALP (C57BL6 mice [2]; [9]): no effect
blood glucose and insulin level (C57BL6 mice [2]; [10]): effectively reduce
insulin resistance (C57BL6 mice [2]; [10]): improve
apoptosis (liver) (C57BL6 mice [2]; [11]): improve
fibrosis degree of liver (C57BL6 mice [2]; [11]): effectively reduce
levels of ALT and AST (C57BL6 mice [2]; [11]): effectively reduce
subcutaneous fat, liver fat and serum fat deposition (C57BL6 mice [2]; overall conclusion, in a short period of time, dose-dependent, improvement reduced as treatment duration extended): effectively reduce
liver fat accumulation, liver cell damage, insulin resistance and liver fibrosis (C57BL6 mice [2]; short-term (8 weeks) co-administration or delayed administration, to various degrees): improve
body weight (C57BL6 mice [3]; week 8, L47 treatment groups vs model group): significantly decreased
abdominal fat deposition (general observation) (C57BL6 mice [3]; week 8, treatment groups): significant effect
abdominal fat deposition (general observation) (C57BL6 mice [3]; week 16, among each group): no significant difference
body weight (C57BL6 mice [3]; week 16, low dose group 2): decrease
body weight (C57BL6 mice [3]; week 16, treatment groups except low dose group 2, vs model group): no significant difference
